Measured values from PubChem BioAssay AID248 (DTP/NCI, 2004).
Toxic doses and inconclusive results are not listed. Rule as the data show it: active = T/C of 150% or more; inactive = T/C below 125%. Peptide text beside a SMILES is read from it. * marks the point of attachment. Cbz = O=C(OCc1ccccc1)*

System: L1210 leukemia ip in BDF1 mice, survival T/C
Assay: NCI In Vivo Anticancer Drug Screen. Data for tumor model L1210 Leukemia (intraperitoneal) in B6D2F1 (BDF1) mice
Conditions: endpoint: mean survival time, higher = longer survival
Method in brief: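 Tumor cells were implanted, animals were treated, and survival was followed. The result divides the treated measurement by the vehicle-control measurement.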

[1] = dose: 100.0 mg/kg/injection, schedule: Q01DX009 (ip), vehicle: Klucel (hydroxypropylcellulose) (HPC)
[2] = dose: 50.0 mg/kg/injection, schedule: Q01DX009 (ip), vehicle: saline
[3] = dose: 100.0 mg/kg/injection, schedule: Q01DX009 (ip), vehicle: saline
[4] = dose: 100.0 mg/kg/injection, schedule: Q04DX003 (ip), vehicle: Klucel (hydroxypropylcellulose) (HPC)
[5] = dose: 200.0 mg/kg/injection, schedule: Q01DX009 (ip), vehicle: Klucel (hydroxypropylcellulose) (HPC)
[6] = dose: 200.0 mg/kg/injection, schedule: Q04DX003 (ip), vehicle: Klucel (hydroxypropylcellulose) (HPC)
[7] = dose: 400.0 mg/kg/injection, schedule: Q01DX009 (ip), vehicle: Klucel (hydroxypropylcellulose) (HPC)
[8] = dose: 400.0 mg/kg/injection, schedule: Q04DX003 (ip), vehicle: Klucel (hydroxypropylcellulose) (HPC)
[9] = dose: 100.0 mg/kg/injection, schedule: Q01DX009 (ip), vehicle: saline with Tween-80
[10] = dose: 200.0 mg/kg/injection, schedule: Q01DX009 (ip), vehicle: saline with Tween-80
[11] = dose: 100.0 mg/kg/injection, schedule: Q04DX003 (ip), vehicle: saline with Tween-80
[12] = dose: 200.0 mg/kg/injection, schedule: Q04DX003 (ip), vehicle: saline with Tween-80
[13] = dose: 400.0 mg/kg/injection, schedule: Q04DX003 (ip), vehicle: saline with Tween-80
[14] = dose: 100.0 mg/kg/injection, schedule: Q04DX003 (ip), vehicle: saline
[15] = dose: 200.0 mg/kg/injection, schedule: Q01DX009 (ip), vehicle: saline
[16] = dose: 200.0 mg/kg/injection, schedule: Q04DX003 (ip), vehicle: saline
[17] = dose: 400.0 mg/kg/injection, schedule: Q04DX003 (ip), vehicle: saline
[18] = dose: 100.0 mg/kg/injection, schedule: Q01DX001 (ip), vehicle: saline
[19] = dose: 200.0 mg/kg/injection, schedule: Q01DX001 (ip), vehicle: saline

Measured: T/C

CC1(C)CCCC(Br)C1=O (stereo not given)
inactive: dose: 50.0 mg/kg/injection, schedule: Q01DX009 (ip), vehicle: Klucel (hydroxypropylcellulose) (HPC) 97 % of control | [1] 104 % of control

CC1(C)N=C(N)N=C(N)N1c1ccc(CCCCc2ccc(S(=O)(=O)F)cc2)cc1
inactive: [2] 113 % of control | [3] 106 % of control

O=C(c1ccc([N+](=O)[O-])cc1)c1ccccn1
inactive: [1] 103 % of control | [4] 101 % of control | [5] 102 % of control | [6] 93 % of control | [7] 115 % of control | [8] 92 % of control

O=C(Nc1ccc(Nc2ccccc2)cc1)Nc1cccc(F)c1
inactive: [9] 88 % of control | [10] 96 % of control

O=C(O)/C=C\c1cccc([N+](=O)[O-])c1
inactive: [11] 92 % of control | [12] 93 % of control | [13] 92 % of control

CCOC(=O)CCC(NC(=O)C(CCC(=O)O)NC(=O)OCc1ccccc1)C(=O)OCC (stereo not drawn) (Cbz-Glu-Glu(OEt)-OEt; configuration not given here)
inactive: [4] 94 % of control | [6] 101 % of control | [8] 96 % of control

c1ccc([P+](Cc2cccc3c2Cc2ccccc2-3)(c2ccccc2)c2ccccc2)cc1
inactive: dose: 15.0 mg/kg/injection, schedule: Q01DX001 (ip), vehicle: carboxymethylcellulose (CMC) 104 % of control

C/C(=C/c1c(C)[nH]c(=O)[nH]c1=O)C(=O)O
inactive: [3] 92 % of control | [14] 98 % of control | [15] 95 % of control | [16] 104 % of control | [17] 106 % of control

CCC(O)Cc1c[nH]c(=O)[nH]c1=O (stereo not given)
inactive: [2] 93 % of control | [3] 98 % of control | [11] 94 % of control | [12] 94 % of control

N#CC(=N)N1CCCCC1
inactive: [14] 98 % of control | [16] 112 % of control | [17] 109 % of control

CCN(Cc1ccccc1)C(=S)NC1CCCCC1
inactive: dose: 100.0 mg/kg/injection, schedule: Q04DX002 (ip), vehicle: saline 96 % of control | dose: 200.0 mg/kg/injection, schedule: Q04DX002 (ip), vehicle: saline 96 % of control | dose: 400.0 mg/kg/injection, schedule: Q04DX002 (ip), vehicle: saline 100 % of control

NC(=O)NC1CCCCCCC1
inactive: [11] 98 % of control | [12] 89 % of control | [13] 95 % of control

O=C1Cc2ccccc2CNN1
inactive: dose: 100.0 mg/kg/injection, schedule: Q01DX001 (ip), vehicle: other 90 % of control | dose: 400.0 mg/kg/injection, schedule: Q01DX001 (ip), vehicle: other 102 % of control

CCOC(=O)CCCc1c[nH]c2ccccc12
inactive: [9] 101 % of control | [11] 95 % of control | [10] 101 % of control | [12] 100 % of control | dose: 400.0 mg/kg/injection, schedule: Q01DX009 (ip), vehicle: saline with Tween-80 102 % of control | [13] 95 % of control

O=C(O)Cn1[nH]c(=O)ccc1=O
inactive: dose: 100.0 mg/kg/injection, schedule: Q01DX001 (ip), vehicle: saline with Tween-80 103 % of control | dose: 200.0 mg/kg/injection, schedule: Q01DX001 (ip), vehicle: saline with Tween-80 103 % of control | dose: 400.0 mg/kg/injection, schedule: Q01DX001 (ip), vehicle: saline with Tween-80 102 % of control

c1ccc2cc3nc4ccccc4nc3cc2c1
inactive: dose: 100.0 mg/kg/injection, schedule: Q01DX001 (ip), vehicle: acetone 92 % of control | [14] 108 % of control | dose: 200.0 mg/kg/injection, schedule: Q01DX001 (ip), vehicle: acetone 97 % of control | [16] 101 % of control | dose: 400.0 mg/kg/injection, schedule: Q01DX001 (ip), vehicle: acetone 86 % of control | [17] 111 % of control

Cc1cc2ccccc2c2cc3ccccc3cc12
inactive: [1] 104 % of control | dose: 100.0 mg/kg/injection, schedule: Q04DX003 (ip), vehicle: other 111 % of control | [5] 109 % of control | dose: 200.0 mg/kg/injection, schedule: Q04DX003 (ip), vehicle: other 106 % of control | [7] 107 % of control | dose: 400.0 mg/kg/injection, schedule: Q04DX003 (ip), vehicle: other 111 % of control

COc1ccc2c(c1)CC1c3[nH]c4ccccc4c3CCN1C2 (stereo not given)
inactive: dose: 100.0 mg/kg/injection, schedule: Q01DX001 (ip), vehicle: Klucel (hydroxypropylcellulose) (HPC) 94 % of control | dose: 200.0 mg/kg/injection, schedule: Q01DX001 (ip), vehicle: Klucel (hydroxypropylcellulose) (HPC) 92 % of control

CCCC(=O)Nc1ccc(NS(C)(=O)=O)cc1OC
inactive: [3] 103 % of control | [14] 102 % of control | [15] 100 % of control | [16] 102 % of control | dose: 400.0 mg/kg/injection, schedule: Q01DX009 (ip), vehicle: saline 102 % of control | [17] 100 % of control

CC(=O)NC1C(O)OC(COC(c2ccccc2)(c2ccccc2)c2ccccc2)C(O)C1O (stereo not given)
inactive: [18] 91 % of control | [19] 93 % of control | dose: 400.0 mg/kg/injection, schedule: Q01DX001 (ip), vehicle: saline 104 % of control

CC(NC(=O)C(CCC(=O)O)NC(=O)C(N)C(C)C)C(=O)NCC(=O)NC(C(=O)NC(CCC(=O)O)C(=O)NC(C)C(=O)NCC(=O)NCC(=O)O)C(C)C (stereo not given) (H-VEAGVEAGG-OH; configuration not given here)
inactive: dose: 50.0 mg/kg/injection, schedule: Q01DX001 (ip), vehicle: saline 93 % of control | [18] 95 % of control | [19] 91 % of control

N=C(N)c1ccc(OCCCOc2ccc(C(=N)N)cc2Br)c(Br)c1
inactive: dose: 6.25 mg/kg/injection, schedule: Q01DX009 (ip), vehicle: saline 100 % of control | dose: 6.25 mg/kg/injection, schedule: Q04DX003 (ip), vehicle: saline 99 % of control | dose: 12.5 mg/kg/injection, schedule: Q01DX009 (ip), vehicle: saline 115 % of control | dose: 12.5 mg/kg/injection, schedule: Q04DX003 (ip), vehicle: saline 99 % of control | dose: 16.5 mg/kg/injection, schedule: Q01DX009 (ip), vehicle: saline 123 % of control | dose: 18.0 mg/kg/injection, schedule: Q01DX Z (ip), vehicle: methylcellulose (MC) 110 % of control | dose: 25.0 mg/kg/injection, schedule: Q04DX003 (ip), vehicle: saline 92 % of control | dose: 27.0 mg/kg/injection, schedule: Q01DX Z (ip), vehicle: methylcellulose (MC) 113 % of control | dose: 37.5 mg/kg/injection, schedule: Q01DX009 (ip), vehicle: saline 107 % of control | dose: 40.0 mg/kg/injection, schedule: Q01DX Z (ip), vehicle: methylcellulose (MC) 103 % of control | dose: 60.0 mg/kg/injection, schedule: Q01DX Z (ip), vehicle: methylcellulose (MC) 113 % of control
